According to US20250186751A1, “BREATH-POWERED NASAL DEVICES FOR TREATMENT OF TRAUMATIC BRAIN INJURY (TBI), INCLUDING CONCUSSION, AND METHODS AND METHODS” (Odyssey Health, Inc., priority 2021, published 2025):

What was measured:
[1] = preclinical studies of neuroprotective effects; assay type: in vivo; conditions: compared to related neurosteroids
Source text: (§1) ent-19-norprogesterone is a fully synthetic, non-naturally, occurring neurosteroid.

[2] = system: animal models of concussion; assay: animal models of concussion; assay type: in vivo
Source text: as §1

In the case of `CC(=O)[C@@H]1CCC2C3CCC4=CC(=O)CC[C@H]4C3CC[C@]21C` (single isomer, unassigned) [ent-19-norprogesterone, ent-19-norpregn-4-ene-3,20-dione], the neuroprotective effects [1] is reported as “equivalent, if not superior, neuroprotective effects compared to related neurosteroids” and the “behavioral pathology associated with brain injury symptoms such as memory impairment, anxiety, and motor/sensory performance” value [2] is reported as “reduces the behavioral pathology”.
